Assay results: patent publication US9539307B2, “Compositions and methods for treating amyotrophic lateral sclerosis” (THE RESEARCH INSTITUTE AT NATIONWIDE CHILDREN'S HOSPITAL, priority 2012, dated 2017)

What was measured:
PRF1 = assay: Western blot of PRF1 knockdown in human astrocytes; format: cell-based
Source text: (§1) To knockdown PRF1 and GZMB levels in astrocytes, sequences from the RNAi Consortium lentiviral shRNA library were screened and relevant plasmids purchased from Open Biosystems. Clones TRCN0000077206 ([…] (SEQ ID NO: 19)) and TRCN0000032742 ([…] (SEQ ID NO: 20)) were used to target PRF1 and GZMB in mouse astrocytes, respectively. Clones TRCN0000007942 ([…] (SEQ ID NO: 21)) and TRCN0000006448 ([…] (SEQ ID NO: 22)) were used to knockdown PRF1 and GZMB in human astrocytes, respectively. Scrambled shRNA were used as controls for PRF1 ([…] (SEQ ID NO: 23)) and for GZMB ([…] (SEQ ID NO: 24)). […] Prior to addition to astrocytes, viral titer was obtained using Quick-titer lentivirus quantification kit follow manufacture's directions (CellBiolabs Inc, San Diego, Calif., USA).
(§2) Based on the levels of knockdown efficiency evaluated by western blot analysis, clones TRCN0000077206 ([…] (SEQ ID NO: 45)) and TRCN0000007942 ([…] (SEQ ID NO: 46)) were chosen to target PRF1 in mouse and human astrocytes, respectively. […]
(§3) Crude protein cell lysates were obtained using the Tissue Protein Extracting Reagent (Pierce, Rockford, Ill.) following manufacture recommendations. […] Bound primary antibody was detected by horseradish peroxidase conjugated secondary antibody (Jackson ImmunoResearch, West Grove, Pa.) followed by chemiluminescence using ECLTM Western Blotting Detection Reagents (GE Healthcare).

GZMB = assay: Western blot of GZMB knockdown in human astrocytes; format: cell-based
Source text: as §1, §2, §3

| Sequence | PRF1 expression (PRF1) | GZMB expression (GZMB) |
| --- | --- | --- |
| ACCTGAATCATGGCCACCTAA (chemistry not given here) [SEQ ID NO: 1] | efficiently ablate | – |
| CATTGTCTCCTATGGACGAAA (expressed or natural sequence) [SEQ ID NO: 2] | – | efficiently ablate |
